# Test results as given in patent US8642621B2, “(4-phenyl-piperidin-1-yl)-[5-(1H-pyrazol-4-yl)-thiophen-3-yl]-methanone compounds and their use” (The University Of Edinburgh, priority 2009, dated 2014).
# Like-named read-outs stand apart in the source and are kept apart here.
# Tests used:
# human 11β-HSD1 enzyme = target: T1, human 11β-HSD1 enzyme (Homo sapiens, UniProt P28845); test: Cellular in vitro 11β-HSD1 enzyme inhibition assay (SPA, HEK293/11β-HSD1 cells); assay type: cell-based
# T1 construct: stably transfected with a construct containing the full-length gene coding for the human 11β-HSD1 enzyme; expressed in transfected cells; HEK293/11β-HSD1 cells)
# T1 sequence (P28845 whole entry): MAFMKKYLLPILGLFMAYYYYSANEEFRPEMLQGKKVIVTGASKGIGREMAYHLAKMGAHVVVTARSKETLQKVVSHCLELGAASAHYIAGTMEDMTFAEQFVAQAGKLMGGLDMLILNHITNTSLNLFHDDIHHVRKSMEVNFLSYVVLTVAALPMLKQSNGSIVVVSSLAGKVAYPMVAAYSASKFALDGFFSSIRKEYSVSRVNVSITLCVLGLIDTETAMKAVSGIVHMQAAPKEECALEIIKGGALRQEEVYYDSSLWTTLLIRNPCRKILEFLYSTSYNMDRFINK
# Description: Cellular In Vitro 11β-HSD1 Enzyme Inhibition Assay
# Compounds were assessed by a Scintillation Proximity Assay (SPA) performed according to the following protocol:
# HEK293 cells were stably transfected with a construct containing the full-length gene coding for the human 11β-HSD1 enzyme to create HEK293/11β-HSD1 cells. Cells were routinely cultured in DMEM containing 10% calf foetal serum, 1% glutamine, and 1% penicillin and streptomycin. Prior to assay, cells were plated at 2×10^4 cells/well in 96-well poly-D-Lys coated flat-bottomed microplates and incubated in 5% CO2, 95% O2 at 37° C. for 24 hours. The media in each well was removed immediately before assay.
# Compounds to be tested were dissolved in DMSO at 10 mM and serially diluted into water containing 10% DMSO. Diluted compounds at a volume of 10 μL were added to wells of a 96-well V-bottomed microplate. A solution of DMEM, 1% glutamine, 1% penicillin and streptomycin, and 22 nM tritiated cortisone was prepared and 90 μL added to each well of the assay plate. This solution (100 μL/well) was transferred to the plate containing the cells. The plate was then incubated in 5% CO2, 95% O2 at 37° C. for 2 hours.
# Following this incubation, 50 μL of the assay solution was transferred to each well of a 96-well scintillation microplate. A mixture consisting of anti-mouse YSi SPA beads, pre-mixed with anti-cortisol antibody in assay buffer (50 mM Tris.HCl, pH 7.0; 300 mM NaCl; 1 mM EDTA, 5% glycerol) was prepared and 50 μL added to each well of the scintillation microplate. An adhesive strip was applied to the microplate and the plate gently shaken for at least 2 hours at room temperature, and then spun briefly on a low speed centrifuge. The plate was read on a scintillation counter suitable for 96-well microplates. For the calculation of percentage inhibition, a series of wells were added to the plate that represented the assay maximum and the assay minimum: one set that contained substrate without cells (minimum) and another set that contained substrate and cells without any compound (maximum).
# The calculation of median inhibitory concentration (IC50) values for the compounds was performed using GraphPad Prism® software. Dose-response curves for each compound were plotted as fractional inhibition and data fitted to the four parameter logistic equation.
# [1] = In vitro human liver microsomal stability assay; assay type: in vitro ADME; settings: human liver microsomes
# Description: In Vitro Human Liver Microsomal Stability Assay
# To predict in vivo metabolism of compounds, the stability of compounds incubated with human liver microsomes in vitro was determined. Human liver microsome preparations were stored at −80° C. and thawed on ice prior to use. The thawed microsomes were diluted to a concentration of 2 mg/mL in 50 mM sodium phosphate, pH 7.4. Reference and test compounds were prepared as 10 mM stocks in 100% DMSO and diluted to 1 mM in acetonitrile before use. Each compound was tested in triplicate as follows:
# 4 μL of test or reference compound was added to a well of a 24-well microplate and 0.5 mL of 4 mM NADPH added. The plate was then transferred to a shaker for 10 minutes at room temperature. 30 μL of the compound/NADPH solution was transferred to the well of a 96-well microplate and incubated at 37° C. for 5 minutes. 30 μL of human liver microsomes (pre-incubated at 37° C. for 5 minutes) was added to the well containing the compound/NADPH solution and the plate incubated for the selected period of time (typically 0 or 30 minutes). The reaction was stopped by adding 60 μL of ice cold […] trichloroacetic acid. The plate was centrifuged at 1000 rpm for 5 minutes at room temperature and the supernatant transferred to the well of a new 96-well v-bottomed microplate for mass spectrometric analysis.
# Samples were analyzed by TSQ Quantum Discovery Tandem Mass Spectrometer and Surveyor Liquid Chromatogram (Thermo, Hemel-Hempstead, UK). 10 μL of each sample was injected in a mobile phase consisting of 60%:40% methanol:5 mM ammonium acetate at a flow rate of 0.5 mL/minute. The column used was a BDS hypersil, C18, 50×2.1 mm with a 5 μm particle size.
# Each compound was tuned with a spray voltage of 3000 V and a capillary temperature of 300° C. and values for tube lens, CID and product ions were determined.
# The peak area for each compound was measured in triplicate for the 0 and 30 minute samples and the average of each was reported. The percentage remaining after 30 minutes was calculated as the average peak area of the sample after 30 minutes divided by the average peak area at 0 minutes. The RSD was 10% or lower for each compound.
# human 11β-HSD2 = target: T2, human 11β-HSD2 (Homo sapiens, UniProt P80365); test: Cellular in vitro 11β-HSD2 enzyme inhibition assay (CHO cells); assay type: cell-based; settings: CHO cells stably transfected with human 11β-HSD2; Table 1
# T2 construct: CHO cells stably transfected with the full-length gene coding for human 11β-HSD2 were used; expressed in transfected cells
# T2 sequence (P80365 1-405): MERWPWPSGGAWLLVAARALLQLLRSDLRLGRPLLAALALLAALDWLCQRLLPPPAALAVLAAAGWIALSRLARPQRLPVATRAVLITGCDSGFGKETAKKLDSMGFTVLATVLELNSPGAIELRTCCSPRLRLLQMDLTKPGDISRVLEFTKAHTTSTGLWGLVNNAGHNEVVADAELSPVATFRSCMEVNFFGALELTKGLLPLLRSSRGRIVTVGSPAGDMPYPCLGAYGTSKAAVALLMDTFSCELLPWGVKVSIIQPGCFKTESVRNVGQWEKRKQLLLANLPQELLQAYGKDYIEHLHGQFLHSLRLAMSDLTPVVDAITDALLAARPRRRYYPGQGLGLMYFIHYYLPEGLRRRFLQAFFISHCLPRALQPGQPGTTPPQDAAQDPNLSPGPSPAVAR
# Description: Cellular In Vitro 11β-HSD2 Enzyme Inhibition Assay
# Assays were carried out in 96-well microplates containing 1×10^5 cells/well. Controls and compounds were plated as above, so that the final DMSO concentration in each well was 1%. To initiate the assay, 90 μL of a solution of HAMS F-12 medium containing 1% glutamine, 1% penicillin and streptomycin, and 22 nM tritiated cortisol was added to each well of the assay plate. The plate was then incubated in 5% CO2, 95% O2 at 37° C. for 16 hours.
# The assay solutions were transferred to glass tubes and 20 μL ethyl acetate added to each tube. Each tube was vortexed thoroughly and the upper layer containing the tritiated steroid transferred to a fresh glass tube. The solvent was evaporated by placing the tubes in a heating block at 65° C. under a stream of Nitrogen gas. 20 μL ethanol was added to each of the dried samples and vortexed briefly. Each sample was applied to a silica TLC plate and the plate dried. The plate was placed vertically in a glass tank containing 92% chloroform:8% ethanol and the solvent allowed to rise up the plate. The plate was dried, placed in an imaging cassette, and overlayed with a tritium imaging plate for 1-2 days. The amount of enzyme inhibition in each sample was determined by measuring the intensity of the substrate and product spots using a phosphoimager.
# IC50 values for inhibitors were determined as described for 11β-HSD1.
# [2] = read-out: IC50 for 11β-HSD1 (HEK293)
# [3] = HEK293 cells stably transfected with human 11β-HSD1, Table 1, read-out: IC50 for 11β-HSD1 (HEK293)
SMILES,IC50 (human 11β-HSD1 enzyme; [2]) [µM],other results
O=C(c1csc(-c2cn[nH]c2)c1)N1CCC(O)(c2cccc(C(F)(F)F)c2)CC1 [AA-03],0.5 to 1,–
O=C(c1csc(-c2cn[nH]c2)c1)N1CCC(O)(c2ccc(F)cc2)CC1 [AA-05],≤ 0.5,% Parent Remaining at 30 min [1]: +++ (61-100% +++)
O=C(c1csc(-c2cn[nH]c2)c1)N1CCC(O)(c2ccc(Cl)cc2F)CC1 [AA-07],≤ 0.5,% Parent Remaining at 30 min [1]: +++ (61-100% +++)
O=C(c1csc(-c2cn[nH]c2)c1)N1CCC(O)(c2ccc(F)cc2F)CC1 [AA-09],≤ 0.5,% Parent Remaining at 30 min [1]: +++ (61-100% +++)
O=C(c1csc(-c2cn[nH]c2)c1)N1CCC(O)(c2ccccc2O)CC1 [AA-10],1 to 10,–
O=C(c1csc(-c2cn[nH]c2)c1)N1CCC(O)(c2ccc(Cl)c(Cl)c2)CC1 [AA-11],≤ 0.5,–
O=C(c1csc(-c2cn[nH]c2)c1)N1CCC(O)(c2ccc(F)cc2Cl)CC1 [AA-12],≤ 0.5,IC50 (human 11β-HSD2): > 10 µM; IC50 (human 11β-HSD1 enzyme; [3]): 0.099 µM
Cc1ccccc1C1(O)CCN(C(=O)c2csc(-c3cn[nH]c3)c2)CC1 [AA-13],≤ 0.5,–
O=C(c1csc(-c2cn[nH]c2)c1)N1CCC(O)(c2ccccc2C(F)(F)F)CC1 [AA-14],≤ 0.5,–
COC1(c2ccccc2)CCN(C(=O)c2csc(-c3cn[nH]c3)c2)CC1 [AA-15],≤ 0.5,IC50 (human 11β-HSD2): > 10 µM; % Parent Remaining at 30 min [1]: ++ (31-60% ++); IC50 (human 11β-HSD1 enzyme; [3]): 0.11 µM
CC1(c2ccccc2)CCN(C(=O)c2csc(-c3cn[nH]c3)c2)CC1 [AA-16],≤ 0.5,% Parent Remaining at 30 min [1]: + (0-30% +)
O=C(c1csc(-c2cn[nH]c2)c1)N1CCC(CO)(c2ccccc2)CC1 [AA-19],1 to 10,–
N#CC1(c2ccccc2)CCN(C(=O)c2csc(-c3cn[nH]c3)c2)CC1 [AA-20],–,IC50 (human 11β-HSD1 enzyme): 1 to 10 µM
O=C(c1csc(-c2cn[nH]c2)c1)N1CCC(O)(c2cccc(Cl)c2Cl)CC1 [AA-21],≤ 0.5,–
O=C(c1csc(-c2cn[nH]c2)c1)N1CCC(O)(c2c(F)cccc2Cl)CC1 [AA-23],≤ 0.5,–
O=C(c1csc(-c2cn[nH]c2)c1)N1CCC(O)(c2ccc(Cl)cc2Cl)CC1 [AA-24],≤ 0.5,–
COc1ccccc1C1(O)CC2CCC(C1)N2C(=O)c1csc(-c2cn[nH]c2)c1 (centres unmarked) [AA-25],≤ 0.5,–
O=C(c1csc(-c2cn[nH]c2)c1)N1CCC(O)(c2cc(F)ccc2Cl)CC1 [AA-26],≤ 0.5,–
O=C(c1csc(-c2cn[nH]c2)c1)N1CCC(O)(c2c(Cl)cccc2Cl)CC1 [AA-27],≤ 0.5,–
O=C(c1csc(-c2cn[nH]c2)c1)N1CCC(O)(c2c(F)cccc2F)CC1 [AA-28],≤ 0.5,–
Cc1n[nH]cc1-c1cc(C(=O)N2CCC(O)(c3ccccc3Cl)CC2)cs1 [AA-29],≤ 0.5,–

SMILES,IC50 (human 11β-HSD1 enzyme; [2]) [µM],other results
O=C(c1csc(-c2cn[nH]c2)c1)N1CCC(O)(c2cc(Cl)ccc2Cl)CC1 [AA-31],≤ 0.5,–
O=C(c1csc(-c2cn[nH]c2)c1)N1CC2CCC(C1)C2(O)c1ccccc1 (centres unmarked) [AA-32],0.5 to 1,–
CC1(c2ccccc2Cl)CCN(C(=O)c2csc(-c3cn[nH]c3)c2)CC1 [AA-34],≤ 0.5,–
O=C(c1csc(-c2cn[nH]c2)c1)N1CCC(F)(c2ccc(Cl)cc2)CC1 [AA-35],0.5 to 1,–
O=C(c1csc(-c2cn[nH]c2)c1)N1CCC(F)(c2ccc(Cl)cc2Cl)CC1 [AA-38],≤ 0.5,–
"O=C(c1csc(-c2cn[nH]c2)c1)N1CC2CCC(C1)C2(F)c1ccccc1 (centres unmarked) [AA-39, (8-Fluoro-8-phenyl-3-aza-bicyclo[3.2.1]oct-3-yl)-[5-(1H-pyrazol-4-yl)-thiophen-3-yl]methanone]",1 to 10,–
Cc1cccc(F)c1C1(F)CCN(C(=O)c2csc(-c3cn[nH]c3)c2)CC1 [AA-40],≤ 0.5,–
N#CC1(c2ccccc2Cl)CCN(C(=O)c2csc(-c3cn[nH]c3)c2)CC1 [AA-41],–,IC50 (human 11β-HSD1 enzyme): 1 to 10 µM
O=C(c1csc(-c2cn[nH]c2)c1)N1CCC(c2ccc(F)cc2)CC1 [BB-01],0.5 to 1,% Parent Remaining at 30 min [1]: +++ (61-100% +++)
N#Cc1ccc(C2CCN(C(=O)c3csc(-c4cn[nH]c4)c3)CC2)cc1 [BB-02],1 to 10,–
N#Cc1ccccc1C1CCN(C(=O)c2csc(-c3cn[nH]c3)c2)CC1 [BB-04],≤ 0.5,% Parent Remaining at 30 min [1]: ++ (31-60% ++)
O=C(c1csc(-c2cn[nH]c2)c1)N1CCC(c2cccc(F)c2)CC1 [BB-05],≤ 0.5,% Parent Remaining at 30 min [1]: ++ (31-60% ++)
O=C(c1csc(-c2cn[nH]c2)c1)N1CCC(c2ccc(Cl)cc2)CC1 [BB-06],0.5 to 1,% Parent Remaining at 30 min [1]: +++ (61-100% +++)
O=C(c1csc(-c2cn[nH]c2)c1)N1CCC(c2ccccc2F)CC1 [BB-07],≤ 0.5,% Parent Remaining at 30 min [1]: + (0-30% +)
O=C(c1csc(-c2cn[nH]c2)c1)N1CCC(c2ccccc2OC(F)F)CC1 [BB-09],≤ 0.5,–
O=C(c1csc(-c2cn[nH]c2)c1)N1CCC(c2ccc(F)cc2F)CC1 [BB-10],0.5 to 1,–
Cc1n[nH]cc1-c1cc(C(=O)N2CCC(c3ccccc3)CC2)cs1 [BB-11],0.5 to 1,IC50 (human 11β-HSD2): > 10 µM; IC50 (human 11β-HSD1 enzyme; [3]): 0.638 µM
Cc1ccccc1C1CCN(C(=O)c2csc(-c3cn[nH]c3)c2)CC1 [BB-12],≤ 0.5,–
O=C(c1csc(-c2cn[nH]c2)c1)N1CCC(c2ccccc2C(F)(F)F)CC1 [BB-13],0.5 to 1,% Parent Remaining at 30 min [1]: +++ (61-100% +++)
O=C(c1csc(-c2cn[nH]c2)c1)N1CCC(c2ccccc2CO)CC1 [BB-14],≤ 0.5,–
O=C(c1csc(-c2cn[nH]c2)c1)N1CCC(c2ccccc2Cl)CC1 [BB-15],≤ 0.5,–
